Series [1] addresses T1, Receptor-type tyrosine-protein kinase FLT3 (Homo sapiens, UniProt P36888).
T1 sequence (P36888 whole entry): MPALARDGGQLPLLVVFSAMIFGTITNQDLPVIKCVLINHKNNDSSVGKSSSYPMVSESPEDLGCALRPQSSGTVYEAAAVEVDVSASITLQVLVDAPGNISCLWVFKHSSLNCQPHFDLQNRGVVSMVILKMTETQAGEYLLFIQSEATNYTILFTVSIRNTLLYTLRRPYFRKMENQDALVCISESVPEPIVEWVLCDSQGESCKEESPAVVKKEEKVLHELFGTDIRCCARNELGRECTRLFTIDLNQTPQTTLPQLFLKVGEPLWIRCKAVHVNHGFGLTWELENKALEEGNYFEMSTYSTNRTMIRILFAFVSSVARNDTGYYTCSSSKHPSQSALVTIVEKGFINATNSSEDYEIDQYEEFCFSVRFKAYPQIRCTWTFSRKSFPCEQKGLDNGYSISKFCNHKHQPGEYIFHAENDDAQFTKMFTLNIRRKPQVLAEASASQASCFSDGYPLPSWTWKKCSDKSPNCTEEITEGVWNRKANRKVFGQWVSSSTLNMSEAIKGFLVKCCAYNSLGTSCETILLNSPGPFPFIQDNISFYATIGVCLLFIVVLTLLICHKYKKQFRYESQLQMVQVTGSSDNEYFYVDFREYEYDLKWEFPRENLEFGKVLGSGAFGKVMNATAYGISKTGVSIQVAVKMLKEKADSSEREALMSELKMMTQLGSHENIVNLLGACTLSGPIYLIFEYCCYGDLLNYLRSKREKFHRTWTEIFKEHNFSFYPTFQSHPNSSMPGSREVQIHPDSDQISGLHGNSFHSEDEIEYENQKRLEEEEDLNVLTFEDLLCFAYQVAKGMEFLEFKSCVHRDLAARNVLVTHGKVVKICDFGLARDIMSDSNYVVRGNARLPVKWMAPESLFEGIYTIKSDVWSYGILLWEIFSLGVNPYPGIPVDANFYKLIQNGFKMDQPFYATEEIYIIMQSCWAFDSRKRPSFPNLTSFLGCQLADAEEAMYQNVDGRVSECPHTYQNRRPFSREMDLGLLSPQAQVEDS
In words: Inhibition of Flt3 after 20 mins by radiometric phosphate incorporation assay.

Series [2] has as its target Proto-oncogene tyrosine-protein kinase Src (Homo sapiens, UniProt P12931). In words: Inhibition of Src after 10 mins by radiometric phosphate incorporation assay.
Series [3] has as its target Mast/stem cell growth factor receptor Kit (Homo sapiens, UniProt P10721). In words: Inhibition of c-Kit after 45 mins by radiometric phosphate incorporation assay.
For series [4], the target named is T2, Tyrosine-protein kinase ITK/TSK (Homo sapiens, UniProt Q08881).
T2 sequence (Q08881 whole entry): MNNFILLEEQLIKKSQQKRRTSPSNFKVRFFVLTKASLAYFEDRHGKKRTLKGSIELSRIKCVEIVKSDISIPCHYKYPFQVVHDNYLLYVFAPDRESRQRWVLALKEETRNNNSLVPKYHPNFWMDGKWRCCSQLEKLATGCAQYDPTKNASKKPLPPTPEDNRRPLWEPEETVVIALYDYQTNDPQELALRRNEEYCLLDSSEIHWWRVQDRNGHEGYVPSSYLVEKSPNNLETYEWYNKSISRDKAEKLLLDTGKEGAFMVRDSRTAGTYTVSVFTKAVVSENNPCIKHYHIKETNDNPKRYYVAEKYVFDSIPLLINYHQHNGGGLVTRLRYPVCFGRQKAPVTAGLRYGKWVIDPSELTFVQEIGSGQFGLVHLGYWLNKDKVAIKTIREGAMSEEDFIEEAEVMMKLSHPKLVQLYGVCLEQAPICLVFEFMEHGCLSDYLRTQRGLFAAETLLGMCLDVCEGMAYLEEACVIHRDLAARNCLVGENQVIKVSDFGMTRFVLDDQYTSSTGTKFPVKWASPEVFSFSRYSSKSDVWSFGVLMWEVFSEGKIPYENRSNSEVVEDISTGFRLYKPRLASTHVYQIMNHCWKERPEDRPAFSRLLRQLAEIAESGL
In words: Inhibition of Itk after 40 mins by radiometric phosphate incorporation assay.

For series [5], the target named is Tyrosine-protein kinase ITK/TSK (Homo sapiens) (UniProt Q08881). Particulars: 3 uM.
Description: Inhibition of Itk at 3 uM after 40 mins by radiometric phosphate incorporation assay
The nature of series [6]: Permeability across apical to basolateral side of human Caco2 cells after 120 mins by LC-MS/MS analysis. The class given is ADME, cell-based. The conditions noted are these: Caco-2, read-out: permeability. On the technique in general: Caco-2 monolayers are a common model of the intestinal barrier.
Series [7] is described as follows: Permeability across basolateral to apical side of human Caco2 cells after 120 mins by LC-MS/MS analysis. In kind it is ADME, cell-based. The conditions noted are these: Caco-2, read-out: permeability.
Series [8] can be described thus: Solubility of the compound in phosphate buffer at pH 7.4 by high throughput shake flask assay. The class given is physicochemical.
A short description of series [9]: Octanol-phosphate buffer partition coefficient, log D of the compound at pH 7.4 by HPLC analysis. In kind it is physicochemical.
Series [10] deals with Tyrosine-protein kinase ITK/TSK (Homo sapiens) (UniProt Q08881). In words: Inhibition of Itk at 30 uM after 40 mins by radiometric phosphate incorporation assay.

A word on the Ki: it is a measure of affinity in units of concentration, obtained from inhibition or displacement. Read a low Ki as a stronger hold on the target. A word on the inhibition: it is the change of the read-out against control, counted positive when it falls. Usually solubility (thermodynamic) stands for solubility found after equilibrating the solid with the medium. One may read the logD as the decadic logarithm of the distribution of all forms, ionised or not, between an organic phase and buffer at a given pH. Read a low logD as a more hydrophilic compound.

Molecules are shown by their SMILES. In brackets after ≈: the same amount, converted by molar mass. Activity calls are given as the source filed them. No cut-off for these calls is given here. Some results are limits rather than exact numbers.

Sequence of Proto-oncogene tyrosine-protein kinase Src (P12931 2-536 limits assumed): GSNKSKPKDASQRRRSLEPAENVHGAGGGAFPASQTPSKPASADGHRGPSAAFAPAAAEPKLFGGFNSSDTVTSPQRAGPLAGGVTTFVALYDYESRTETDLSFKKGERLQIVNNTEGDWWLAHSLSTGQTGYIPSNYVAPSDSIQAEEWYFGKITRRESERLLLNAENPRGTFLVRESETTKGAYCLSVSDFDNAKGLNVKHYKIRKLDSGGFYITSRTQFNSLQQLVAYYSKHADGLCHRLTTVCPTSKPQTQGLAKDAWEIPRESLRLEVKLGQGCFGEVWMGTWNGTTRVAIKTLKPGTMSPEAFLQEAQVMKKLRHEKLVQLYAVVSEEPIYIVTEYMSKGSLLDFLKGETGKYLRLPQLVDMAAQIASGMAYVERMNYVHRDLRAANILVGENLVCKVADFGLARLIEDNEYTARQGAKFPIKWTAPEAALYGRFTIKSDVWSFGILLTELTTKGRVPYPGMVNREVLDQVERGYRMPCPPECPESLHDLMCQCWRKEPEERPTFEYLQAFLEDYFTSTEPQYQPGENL
Sequence of Mast/stem cell growth factor receptor Kit (P10721 whole entry): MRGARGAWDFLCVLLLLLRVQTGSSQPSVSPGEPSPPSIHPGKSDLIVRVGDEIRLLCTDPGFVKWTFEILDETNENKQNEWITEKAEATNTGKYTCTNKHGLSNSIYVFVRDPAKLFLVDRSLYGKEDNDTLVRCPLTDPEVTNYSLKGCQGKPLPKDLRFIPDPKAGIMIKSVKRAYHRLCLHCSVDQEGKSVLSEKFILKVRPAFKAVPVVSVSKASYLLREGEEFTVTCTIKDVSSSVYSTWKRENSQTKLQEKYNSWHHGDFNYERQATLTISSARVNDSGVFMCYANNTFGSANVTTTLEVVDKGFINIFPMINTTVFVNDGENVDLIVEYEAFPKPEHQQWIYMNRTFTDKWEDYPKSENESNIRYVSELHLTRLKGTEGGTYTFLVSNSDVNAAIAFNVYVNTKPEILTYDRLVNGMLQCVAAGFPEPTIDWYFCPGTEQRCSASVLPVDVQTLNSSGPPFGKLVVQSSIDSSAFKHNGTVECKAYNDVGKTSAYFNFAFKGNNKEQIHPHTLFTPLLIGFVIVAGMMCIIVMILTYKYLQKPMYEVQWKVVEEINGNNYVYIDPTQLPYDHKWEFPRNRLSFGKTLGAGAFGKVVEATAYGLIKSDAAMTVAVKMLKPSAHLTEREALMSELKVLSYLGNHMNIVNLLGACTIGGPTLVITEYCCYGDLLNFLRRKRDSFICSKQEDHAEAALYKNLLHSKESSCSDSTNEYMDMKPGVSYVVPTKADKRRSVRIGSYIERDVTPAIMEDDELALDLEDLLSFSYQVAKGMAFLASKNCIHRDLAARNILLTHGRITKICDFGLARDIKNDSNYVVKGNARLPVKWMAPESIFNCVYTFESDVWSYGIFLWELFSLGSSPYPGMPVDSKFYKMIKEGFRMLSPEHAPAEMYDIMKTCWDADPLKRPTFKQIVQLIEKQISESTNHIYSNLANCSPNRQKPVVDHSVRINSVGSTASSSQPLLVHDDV

As to `CC(C)(C)c1ccc(C(=O)Nc2cc(-c3ccncc3)c[nH]c2=O)cc1`, the Ki amounted to 11 nM in series [1], 1320 nM in series [2], 27 nM in [3] and 120 nM in series [4].

Take `O=C(Nc1cc(-c2ccncc2)c[nH]c1=O)c1ccc(N2CCCCC2)cc1`: the figures for the Ki in series [1], in [2] and in series [3] were 32 nM, 1800 nM and 12 nM, respectively.

Regarding `O=C(Nc1cc(-c2cccc(NC3CC3)n2)c[nH]c1=O)c1ccc(N2CCCCC2)cc1`, the Ki in [1] was 120 nM; in series [2] it was greater than 4000 nM; in series [4], greater than 2000 nM.

As to `CNc1cccc(-c2c[nH]c(=O)c(NC(=O)c3ccc(N4CCCCC4)cc3)c2)n1`, the Ki amounted to 69 nM in series [1] and 148 nM in series [3].

`CNc1cncc(-c2c[nH]c(=O)c(NC(=O)c3ccc(N4CCCCC4)cc3)c2)c1`: the Ki in series [1] came to 1050 nM; in series [3] it was 270 nM.

`O=C(Nc1ccc(N2CCCCC2)cc1)c1cc(-c2ccncc2)c[nH]c1=O` gave a Ki in [4] of 140 nM.

For `CNc1cc(-c2c[nH]c(=O)c(NC(=O)c3ccc(N4CCCCC4)cc3)c2)ncn1`, the Ki came out at 20 nM in series [1] and 83 nM in series [3].

For the molecule `N#Cc1ccc(C(=O)Nc2cc(-c3ccncc3)c[nH]c2=O)cc1`, the inhibition in [5] amounted to 15%. In [4], this molecule showed a Ki greater than 6000 nM.

For the molecule `CNc1cc(-c2c[nH]c(=O)c(NC(=O)c3ccc(N4CCCCC4)cc3)c2)ccn1`, the Ki in series [1] amounted to 6 nM; in series [3], 12 nM.

Consider `O=C(Nc1cc(-c2ccncc2)c[nH]c1=O)c1ccccc1`, for which, in [4], affinity was put at a Ki of 1300 nM.

For `CNc1cncc(-c2c[nH]c(=O)c(NC(=O)c3ccc(N4CCCCC4)cc3)c2)n1`, the Ki was 110 nM in [1] and 155 nM in series [3].

`CN(C)c1ccc(C(=O)Nc2cc(-c3ccncc3)c[nH]c2=O)cc1`: the Ki in [1] worked out at 8 nM; in series [2] it was 2800 nM; in series [3], 46 nM; in series [4], 210 nM.

In series [4], `O=C(Cc1ccccc1)Nc1cc(-c2ccncc2)c[nH]c1=O` came in with a Ki greater than 30000 nM.

Take `O=C(Nc1cc(-c2ccncc2)c[nH]c1=O)c1ccc(C2CCCCC2)cc1`: the affinity in series [4], expressed as Ki, was 220 nM.

`Cc1cccc(C(=O)Nc2cc(-c3ccncc3)c[nH]c2=O)c1` yielded a Ki in series [4] of 2100 nM.

Turning to `CNc1nccc(-c2c[nH]c(=O)c(NC(=O)c3ccc(N4CCCCC4)cc3)c2)n1`, the Ki is 5 nM in series [1], less than 10 nM in [3] and 16 nM in series [4].

`CCc1ccc(C(=O)Nc2cc(-c3ccncc3)c[nH]c2=O)cc1` showed a Ki in series [4] of 530 nM.

Consider `CNc1cc(F)cc(-c2c[nH]c(=O)c(NC(=O)c3ccc(N4CCC[C@H]4CN4CCCC4)cc3)c2)c1`, for which the Ki was 80 nM in series [1], 300 nM in series [2], 400 nM in series [3] and 20 nM in series [4]. For the same molecule, in [6], the Papp A→B at 2 h amounted to 3.3 ×10⁻⁶ cm/s. For the same molecule, the Papp B→A at 2 h in series [7] stood at 19.9 ×10⁻⁶ cm/s. The solubility (thermodynamic) in [8] was 34 µg/mL (≈ 69.4 µM). In addition, the log distribution coefficient (logD) in series [9] came to 3.9.

Turning to `CNc1cc(C#N)cc(-c2c[nH]c(=O)c(NC(=O)c3ccc(N4CCC[C@H]4CN4CCCC4)cc3)c2)c1`, the Ki was 410 nM in series [1], 480 nM in series [2], 400 nM in series [3] and 27 nM in series [4]. Moreover, the Papp A→B at 2 h in series [6] is 3.3 ×10⁻⁶ cm/s. The Papp B→A at 2 h in series [7] is 16.4 ×10⁻⁶ cm/s. For the same molecule, in series [8], the solubility (thermodynamic) came to 23 µg/mL (≈ 46.3 µM). The molecule also gave a logD in series [9] of 3.9.

`O=C(Nc1cc(-c2ccncc2)c[nH]c1=O)c1ccc(N2CCCC2)cc1`: in series [4], the affinity corresponds to a Ki of 170 nM.

On to `Nc1cc(-c2ccncc2)c[nH]c1=O`, for which the inhibition result in series [10] is “inactive”.

In the case of `O=C(Nc1cc(-c2ccncc2)c[nH]c1=O)C1CCCCC1`, in [4], the Ki is greater than 30000 nM.

Take `CNc1cncc(-c2c[nH]c(=O)c(NC(=O)c3ccc(N4CCC[C@H]4CN4CCCC4)cc3)c2)c1`: the Ki in series [1] was determined as 140 nM; in [2] it was 280 nM; in series [3], 1300 nM; in [4], 20 nM. Besides, the thermodynamic solubility in series [8] was 115 µg/mL (≈ 243 µM). The logD in series [9] was 2.9.

Consider `CNc1cccc(-c2c[nH]c(=O)c(NC(=O)c3ccc(N4CCCCC4)cc3)c2)c1`, for which the Ki in [1] is 80 nM; in series [2], 220 nM; in [3], 81 nM; in series [4], 145 nM.

These data come from ChEMBL document CHEMBL1765075, “Discovery and structure-activity relationship of 3-aminopyrid-2-ones as potent and selective interleukin-2 inducible T-cell kinase (Itk) inhibitors” (J Med Chem, 2011).
